In PMC6033213, “Structurally simple synthetic 1, 4-disubstituted piperidines with high selectivity for resistant Plasmodium falciparum” (BMC Pharmacology & Toxicology, 2018):
In brackets after ≈: the same amount, converted by molar mass. Where two headings read alike, the source gives them in different places.

Tests used:
P. falciparum 3D7 = test: Secondary screen: parasite growth inhibition by parasite lactate dehydrogenase (pLDH) assay, 3D7; format: cell-based, Plasmodium falciparum; design: key to Antiplasmodial activity class on 3D7: active, IC50 < 5 μg/mL; moderately active: 5 μg/mL ≤ IC50 ≤ 10 μg/mL; weakly active: IC50 ≥ 10 μg/mL; settings: for IC50 / IC90: Plasmodium falciparum; for IC90: read-out: IC90
Source text: (§1) Two Plasmodium falciparum parasite strains were obtained from MR4 (Manassas, Virginia, USA) and stored in liquid nitrogen. The 3D7 (MRA-102) strain is chloroquine- sensitive while Dd2 is a multidrug resistant clone of the W2 strain with resistance to chloroquine, quinine, mefloquine, sulfadoxine and pyrimethamine. Parasite stocks were thawed, grown and maintained in continuous culture by the candle jar technique with some modifications. The culture consisted of 4% hematocrit suspension of human O+ erythrocytes in RPMI-1640 medium (10.43 g/L supplemented with 0.01 mg/mL gentamycin, 25 mM Hepes buffer, 25 mM NaHCO3) and 5 g Albumax II. All culture reagents were obtained from Sigma-Aldrich Inc. (Germany) except for Albumax II (Gibco; Invitrogen, USA). Cultures were incubated at 37 °C in 5% CO2.
(§2) After incubation the plate was frozen at − 20 °C for the parasite lactate dehydrogenase (pLDH) assay.
(§3) The reagent preparation and assay were done as described. The plates were subjected to 3 freeze-thaw cycles to haemolyze the red blood cells. One hundred microlitre (100 μL) of Malstat reagent was added to each required well of a fresh microtitre plate followed by 20 μL of culture. Then 25 μL of nitroblue tetrazolium/phenazine ethosulfate (NBT/PES) solution was added initiating the reaction. The plates were then incubated for an hour in the dark and optical density (OD) measured at 650 nm (Emax-Molecular Devices Corporation, California, USA).
(§4) For the parasite lactate dehydrogenase assay, the background OD of blank wells containing non parasitized red blood cells was subtracted from values of all test wells. OD values from control wells void of test compound represented the maximum pLDH activity. The OD values obtained were used to determine the IC50, and IC90 values using the software IC Method IC Estimator V1.2 [18], an online calculator of IC values. Each assay was done twice in duplicates and the 4 IC50 or CC50 values obtained were pooled together and expressed as mean IC ± S.D.

[1] = tested on: LLC-MK2 monkey kidney epithelial cells; test: Cytotoxicity test, MTT/formazan assay; format: cell-based; settings: for SI on 3D7: CC50 on LLC-MK2 cells/IC50 on P. falciparum 3D7; for SI on Dd2: CC50 on LLC-MK2 cells/IC50 on P. falciparum Dd2; for Mean SI: mean of the Selectivity Indices of the 3D7 and Dd2 parasite strains
Method: (§5) This was done on monkey kidney epithelial cells, LLC-MK2, (ATCC, USA) as described except for use of same culture medium and conditions for P falciparum above. The cells, 10,000 in 100 μL medium per well, were cultured for 24 h to become confluent and attached to the bottom of the well and the medium replaced with 100 μL of fresh medium. […] A negative control without test substance was included. The plates were incubated for 72 h at 37 °C in 5% CO2 and cell viability were determined using microscopy to observe dead cells which appeared dark and deformed. This was followed by the MTT/formazan assay as described above with slight modification. The CC50 values (50% cytotoxic concentration) for each compound was obtained using Microsoft excel 2007. The selectivity index (SI) was calculated using the formula:3 SI=CC50onLLC‐MK2cells/IC50onP.falciparum
as §4

[2] = Cytotoxicity test, MTT/formazan assay; format: cell-based, monkey; settings: monkey, LLC-MK2 monkey kidney epithelial cells; LLC-MK2 cells, 72 h, MTT/formazan
Method: as §5, §4

P. falciparum Dd2 [3] = test: Secondary screen: parasite growth inhibition by parasite lactate dehydrogenase (pLDH) assay, Dd2; format: cell-based, Plasmodium falciparum; design: key to Antiplasmodial activity class on Dd2: active, IC50 < 5 μg/mL; moderately active: 5 μg/mL ≤ IC50 ≤ 10 μg/mL; weakly active: IC50 ≥ 10 μg/mL; settings: for IC50 / IC90: Plasmodium falciparum; for IC90: read-out: IC90
Source text: as §1, §2, §3, §4

P. falciparum Dd2 [4] = test: Primary screen: in vitro parasite growth inhibition at a single concentration, fluorescence microscopy with acridine orange; format: cell-based, Plasmodium falciparum; settings: 40 μg/mL, 48 h, Dd2 chloroquine-resistant strain; for inhibition at 40 µg/mL: Plasmodium falciparum
Source text: as §1
A primary screen for antiplasmodial activity at a single concentration was performed against Dd2 as described with some modifications, to identify active compounds. Stock solutions of compound (1 mg/mL) was initially dissolved in dimethylsulfoxide (DMSO), then gentamycin-free incomplete medium (without Albumax II) added giving 2% final DMSO; the solutions were sterilized and stored. The positive control solutions (artemether and quinine at 5 μg/mL) were prepared similarly. The compounds were tested at a final concentration of 40 μg/mL in duplicate in a 96 well microtitre plate (100 μL per well), followed by 100 μL of 1% parasitized blood. Positive and negative controls (no drug) were included. The plate was incubated under the same culture conditions as above for 48 h and antiplasmodial activity determined by fluorescence microscopy (Leitz Wetzlar, Germany) with acridine orange stain at × 40 magnification under oil immersion. The number of infected erythrocytes (Ei) was counted in 20 monolayer fields (approximately 1500 cells per field) and the percentage parasitaemia was calculated using the formula:1 %parasitaemia=∑Ei/30,000×100
The percentage inhibition per concentration was then obtained using the formula below:2 percentage%inhibition=%parasitaemia of control well‐%parasitaemia of test well/%parasitaemia of control well×100

[5] = 3D7 chloroquine-sensitive strain, pLDH assay, mean ± S.D., read-out: IC50
[6] = 3D7 chloroquine-sensitive strain, pLDH assay, mean ± S.D.
[7] = Dd2 chloroquine-resistant strain, pLDH assay, mean ± S.D., read-out: IC50
[8] = Dd2 chloroquine-resistant strain, pLDH assay, mean ± S.D.
[9] = Dd2 strain, class by IC50, read-out: Antiplasmodial activity class on Dd2
[10] = 3D7 strain, class by IC50, read-out: Antiplasmodial activity class on 3D7

Compound	Antiplasmodial activity class on 3D7 (P. falciparum 3D7; 3D7 strain, class by IC50)	IC50 (P. falciparum 3D7; [5])	IC90 (P. falciparum 3D7; [6])	SI on 3D7 [1]	SI on Dd2 [1]	Mean SI [1]	CC50 at 72 h [2]	IC50 (P. falciparum Dd2 [3]; [7])	IC90 (P. falciparum Dd2 [3]; [8])	IC50 (P. falciparum Dd2 [3]; [9])	inhibition at 40 µg/mL (P. falciparum Dd2 [4])	Antiplasmodial activity class on Dd2 (P. falciparum Dd2 [3]; Dd2 strain, class by IC50)	Inhibition (%) of P. falciparum Dd2 growth (P. falciparum Dd2 [4])	IC50 (P. falciparum 3D7; [10])
O=C(c1ccc(F)cc1)C1CCN(Cc2ccc(Cl)c(Cl)c2)CC1 [Compound 2, [1-(3,4-dichlorobenzyl)piperidin-4-yl] [4-fluorophenyl] methanone]	active	4.3 ± 3.75 µg/mL (≈ 11.7 µM)	17.61 ± 0.06 µg/mL (≈ 48.1 µM)	43.51	31.37	37.44 ± 8.58	188 µg/mL (≈ 512 µM)	5.97 ± 0.02 µg/mL (≈ 16.3 µM)	24.9 ± 4.14 µg/mL (≈ 67.9 µM)	5 to 10 µg/mL (≈ 13.7 to 27.3 µM)	82.7%	–	–	–
OC(c1ccc(F)cc1)C1CCN(Cc2ccc(Br)cc2)CC1 (stereo not drawn) [Compound 11, [1-(4-bromobenzyl)piperidin-4-yl] [4-fluorophenyl] methanol]	active	2.51 ± 0.3 µg/mL (≈ 6.64 µM)	16.8 ± 0.88 µg/mL (≈ 44.4 µM)	74.49	–	128.26 ± 76.1	188 µg/mL (≈ 496 µM)	1.03 µg/mL (≈ 2.72 µM)	27.8 ± 0.98 µg/mL (≈ 73.5 µM)	–	85.6%	active	–	–
OC(c1ccc(F)cc1)C1CCN(Cc2ccc(Cl)cc2)CC1 (stereo not drawn) [Compound 9, [1-(4-chlorobenzyl)piperidin-4-yl] [4-fluorophenyl] methanol]	active	1.53 ± 0.24 µg/mL (≈ 4.58 µM)	16.1 ± 2.13 µg/mL (≈ 48.2 µM)	–	–	156.25 ± 9.5	250 µg/mL (≈ 749 µM)	1.67 ± 0.24 µg/mL (≈ 5 µM)	16.1 ± 2.13 µg/mL (≈ 48.2 µM)	–	93.2%	active	–	–
O=C(c1ccc(F)cc1)C1CCN(Cc2ccccc2[N+](=O)[O-])CC1 [Compound 4, [1-(2-nitrobenzyl)piperidin-4-yl] [4-fluorophenyl] methanone]	–	–	–	–	–	–	–	–	–	–	27.7%	–	poor inhibition	–
OC(c1ccc(F)cc1)C1CCN(Cc2ccc(F)cc2)CC1 (stereo not drawn) [Compound 7, [1-(4-fluorobenzyl)piperidin-4-yl] [4-fluorophenyl] methanol]	active	4 ± 0.67 µg/mL (≈ 12.6 µM)	14.6 ± 1.52 µg/mL (≈ 46 µM)	93.67	148.34	121.01 ± 38.7	375 µg/mL (≈ 1180 µM)	2.52 µg/mL (≈ 7.94 µM)	17.7 ± 4.34 µg/mL (≈ 55.8 µM)	–	81.3%	active	–	–
O=C(c1ccc(F)cc1)C1CCN(Cc2ccc(Br)cc2)CC1 [Compound 5, [1-(4-bromobenzyl)piperidin-4-yl] [4-fluorophenyl] methanone]	–	10 ± 0.3 µg/mL (≈ 26.6 µM)	17.2 ± 0.97 µg/mL (≈ 45.8 µM)	–	–	–	–	14.5 ± 1.34 µg/mL (≈ 38.6 µM)	32.3 ± 4.17 µg/mL (≈ 85.9 µM)	≥ 10 µg/mL	64.8%	–	–	≥ 10 µg/mL
O=[N+]([O-])c1ccccc1CN1CCC(C(O)c2ccc(F)cc2)CC1 (stereo not drawn) [Compound 10, [1-(2-nitrobenzyl)piperidin-4-yl] [4-fluorophenyl] methanol]	–	13.5 ± 0.54 µg/mL (≈ 39.3 µM)	19.11 ± 0.02 µg/mL (≈ 55.5 µM)	–	–	–	–	14 ± 1.76 µg/mL (≈ 40.6 µM)	35.3 ± 2.02 µg/mL (≈ 102 µM)	≥ 10 µg/mL	79.7%	–	–	≥ 10 µg/mL
CO[C@H]1O[C@@H]2O[C@@]3(C)CC[C@H]4[C@H](C)CC[C@@H]([C@H]1C)[C@@]24OO3 [Art, artemether, reference compound]	–	0.045 µg/mL (≈ 0.151 µM)	–	–	–	–	–	0.039 µg/mL (≈ 0.131 µM)	0.046 µg/mL (≈ 0.154 µM)	–	–	–	–	–
